pIC50: −log10 of the molar value.
Experiments:
TBK1 = TBK1 (Homo sapiens (Human), UniProt Q9UHD2); assay: Lanthascreen TR-FRET kinase inhibition assay, TBK1; assay type: biochemical; details: 20 μM ATP (apparent Km), 8 nM kinase, 2.5 h
Experimental: (§1) Compounds of the invention (synthesised as described below) were tested for activity against the IKKε and TBK-1 enzyme as follows:
(§2) Inhibitions studies were performed using a time-resolved fluorescence-based Lanthascreen™ assay. Phosphorylation of a fluorescein-labelled substrate peptide is measured using terbium-labeled phosphospecific antibodies.
(§3) Kinase inhibition assays (10 μL) were performed at 20° C. in 384-well plate format. […] The final reaction conditions contained 400 nM fluorescein-IkBα substrate ([…]), 20 μM ATP, 2 nM or 8 nM IKKε or TBK1 kinase respectively, and 3% DMSO in kinase assay buffer consisting of 50 mM HEPES (pH 7.5), 10 mM MgCl, 1 mM EGTA, 0.01% Brij-35.
(§4) Compound dilutions were prepared from 10 mM DMSO stocks by dilution into DMSO.
(§5) The kinase phosphorylation assay was initiated by the addition of the kinase and the reaction was allowed to proceed for 1 h or 2.5 h for IKKε and TBK-1 kinase respectively.

IKKε = IKKε (Homo sapiens (Human), UniProt Q14164); assay: Lanthascreen TR-FRET kinase inhibition assay, IKKε; assay type: biochemical; details: 20 μM ATP (apparent Km), 2 nM kinase, 1 h
Experimental: as §1, §2, §3, §4, §5

Sequence of IKKε (Q14164 whole entry): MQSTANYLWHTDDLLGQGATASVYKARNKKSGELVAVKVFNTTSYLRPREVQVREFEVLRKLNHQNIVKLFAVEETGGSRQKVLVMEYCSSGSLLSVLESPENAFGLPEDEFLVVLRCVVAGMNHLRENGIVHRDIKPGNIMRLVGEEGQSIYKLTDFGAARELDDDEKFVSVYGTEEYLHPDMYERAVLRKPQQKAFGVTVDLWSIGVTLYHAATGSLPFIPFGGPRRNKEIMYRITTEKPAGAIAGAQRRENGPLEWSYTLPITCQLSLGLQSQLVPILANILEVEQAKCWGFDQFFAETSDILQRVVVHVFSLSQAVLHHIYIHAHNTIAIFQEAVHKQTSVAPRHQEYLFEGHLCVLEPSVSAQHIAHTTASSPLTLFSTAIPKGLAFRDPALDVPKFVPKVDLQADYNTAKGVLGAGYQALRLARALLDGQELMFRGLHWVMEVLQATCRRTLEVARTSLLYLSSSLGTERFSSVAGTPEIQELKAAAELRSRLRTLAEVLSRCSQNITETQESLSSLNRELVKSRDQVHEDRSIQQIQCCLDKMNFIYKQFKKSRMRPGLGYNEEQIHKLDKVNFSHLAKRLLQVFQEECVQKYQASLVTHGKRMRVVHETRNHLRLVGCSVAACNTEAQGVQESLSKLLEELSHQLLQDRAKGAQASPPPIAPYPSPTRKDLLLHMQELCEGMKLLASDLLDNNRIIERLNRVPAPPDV
Sequence of TBK1 (Q9UHD2 whole entry): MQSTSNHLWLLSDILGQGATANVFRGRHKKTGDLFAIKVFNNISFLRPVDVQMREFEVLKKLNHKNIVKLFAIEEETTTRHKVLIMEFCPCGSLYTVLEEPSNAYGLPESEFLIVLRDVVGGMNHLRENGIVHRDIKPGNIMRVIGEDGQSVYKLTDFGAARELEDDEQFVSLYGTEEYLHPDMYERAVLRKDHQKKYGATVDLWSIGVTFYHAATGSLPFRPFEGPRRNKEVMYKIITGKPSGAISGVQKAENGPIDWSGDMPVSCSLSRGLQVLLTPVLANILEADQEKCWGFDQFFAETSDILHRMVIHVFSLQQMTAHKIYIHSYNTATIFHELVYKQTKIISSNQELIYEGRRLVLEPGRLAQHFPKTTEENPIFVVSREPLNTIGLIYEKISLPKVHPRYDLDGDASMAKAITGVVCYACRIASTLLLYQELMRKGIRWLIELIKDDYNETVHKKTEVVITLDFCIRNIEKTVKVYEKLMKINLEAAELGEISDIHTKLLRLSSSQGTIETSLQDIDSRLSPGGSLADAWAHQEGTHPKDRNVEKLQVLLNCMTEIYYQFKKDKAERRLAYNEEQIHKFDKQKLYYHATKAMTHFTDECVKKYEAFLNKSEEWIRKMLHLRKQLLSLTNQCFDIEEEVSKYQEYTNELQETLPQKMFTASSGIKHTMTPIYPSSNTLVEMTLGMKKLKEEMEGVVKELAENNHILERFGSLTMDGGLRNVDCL

Row | Compound | pIC50 (TBK1) | pIC50 (IKKε)
1 | N#Cc1nc(-c2ccnc(Nc3ccc(OCCN4CC[C@H](F)C4)nc3)n2)ccc1N1CC[C@H](F)C1 [DMX-147, 3-((S)-3-Fluoro-pyrrolidin-1-yl)-6-(2-{6-[2-((S)-3-fluoro-pyrrolidin-1-yl)-ethoxy]-pyridin-3-ylamino}-pyrimidin-4-yl)-pyridine-2-carbonitrile] | > 7.52 | > 7.00
2 | CN1CCC(NC(=O)c2cccc(Nc3nccc(-c4cnc(N5CC[C@H](O)C5)c(C#N)c4)n3)c2)CC1 [DMX-12, 3-{4-[5-Cyano-6-((S)-3-hydroxy-pyrrolidin-1-yl)-pyridin-3-yl]-pyrimidin-2-ylamino}-N-(1-methyl-piperidin-4-yl)-benzamide] | > 7.00 | > 6.00
3 | N#Cc1cc(-c2ccnc(Nc3ccnc(NC(=O)CN4CCOCC4)c3)n2)cnc1N1CC[C@@H](F)C1 [DMX-111, N-(4-{4-[5-Cyano-6-((R)-3-fluoro-pyrrolidin-1-yl)-pyridin-3-yl]-pyrimidin-2-ylamino}-pyridin-2-yl)-2-morpholin-4-yl-acetamide] | > 7.82 | > 7.52
4 | COCCN(C)Cc1ccc(Nc2nccc(-c3ccc(N4CC[C@H](F)C4)c(C#N)n3)n2)cn1 [DMX-152, 3-((S)-3-Fluoro-pyrrolidin-1-yl)-6-[2-(6-{[(2-methoxy-ethyl)-methyl-amino]-methyl}-pyridin-3-ylamino)-pyrimidin-4-yl]-pyridine-2-carbonitrile] | > 7.52 | > 7.52
5 | CN1CCC(Nc2ccc(Nc3nccc(-c4cnc(N5CC[C@H](O)C5)c(C#N)c4)n3)cn2)CC1 [DMX-13, 2-((S)-3-Hydroxy-pyrrolidin-1-yl)-5-{2-[6-(1-methyl-piperidin-4-ylamino)-pyridin-3-ylamino]-pyrimidin-4-yl}-nicotinonitrile] | > 7.00 | > 7.00
6 | N#Cc1cc(-c2ccnc(Nc3ccc(CN4CCOCC4)nc3)n2)cnc1NC1CC1 [DMX-122, 2-Cyclopropylamino-5-[2-(6-morpholin-4-ylmethyl-pyridin-3-ylamino)-pyrimidin-4-yl]-nicotinonitrile] | > 7.00 | > 6.00
7 | CN(CC1CCOC1)c1ncc(-c2ccnc(Nc3ccc(CN4CCOCC4)nc3)n2)cc1C#N (stereo not drawn) [DMX-137, 2-[Methyl-(tetrahydro-furan-3-ylmethyl)-amino]-5-[2-(6-morpholin-4-ylmethyl-pyridin-3-ylamino)-pyrimidin-4-yl]-nicotinonitrile] | > 6.00 | > 6.00
8 | N#Cc1nc(-c2ccnc(Nc3ccc(NC(=O)CN4CCOCC4)nc3)n2)ccc1N1CC[C@H](F)C1 [DMX-142] | > 7.82 | > 7.82
9 | N#Cc1nc(-c2ccnc(Nc3ccc(OCCN4CC[C@H](F)C4)nc3)n2)ccc1N1CC[C@H](O)C1 [DMX-148, 6-(2-{6-[2-((S)-3-Fluoro-pyrrolidin-1-yl)-ethoxy]-pyridin-3-ylamino}-pyrimidin-4-yl)-3-((S)-3-hydroxy-pyrrolidin-1-yl)-pyridine-2-carbonitile] | > 7.00 | > 7.00
10 | CC(C)(N)C(=O)Nc1ccc(Nc2nccc(-c3cnc(N4CC[C@H](F)C4)c(C#N)c3)n2)cn1 [DMX-62, 2-Amino-N-(5-{4-[5-cyano-6-((S)-3-fluoro-pyrrolidin-1-yl)-pyridin-3-yl]-pyrimidin-2-ylamino}-pyridin-2-yl)-2-methyl-propionamide] | > 7.00 | > 7.52
11 | C[C@H]1COCCN1Cc1ccc(Nc2nccc(-c3cnc(N4CC[C@H](F)C4)c(C#N)c3)n2)cn1 [DMX-79, 2-((S)-3-Fluoro-pyrrolidin-1-yl)-5-{2-[6-((S)-3-methyl-morpholin-4-ylmethyl)-pyridin-3-ylamino]-pyrimidin-4-yl}-nicotinonitrile] | > 7.52 | > 7.00
12 | CC(C(N)=O)N(C)c1ncc(-c2ccnc(Nc3ccc(CN4CCOCC4)nc3)n2)cc1C#N (stereo not drawn) [DMX-135, 2-({3-Cyano-5-[2-(6-morpholin-4-ylmethyl-pyridin-3-ylamino)-pyrimidin-4-yl]-pyridin-2-yl}-methyl-amino)-propionamide] | > 7.00 | > 7.00
